Experimental data from patent publication US12637471B2, “Heterocyclic compounds, compositions, methods of preparation and uses thereof” (Organon R&D Finland Ltd, priority 2021, dated 2026).

What was measured:
Type in all cases: biochemical
[1] = biological target: T1, 17β-Hydroxysteroid Dehydrogenase Type 2 Enzyme (17β-HSD2) (Homo sapiens, UniProt P37059); experiment: Inhibition of the 17β-hydroxysteroid dehydrogenase type 2 enzyme, 3H-testosterone conversion; conditions: inhibitor at 10 μM
T1 construct: made in house; host or cells: Sf-9 insect cells (baculovirus)
T1 sequence (P37059 1-387): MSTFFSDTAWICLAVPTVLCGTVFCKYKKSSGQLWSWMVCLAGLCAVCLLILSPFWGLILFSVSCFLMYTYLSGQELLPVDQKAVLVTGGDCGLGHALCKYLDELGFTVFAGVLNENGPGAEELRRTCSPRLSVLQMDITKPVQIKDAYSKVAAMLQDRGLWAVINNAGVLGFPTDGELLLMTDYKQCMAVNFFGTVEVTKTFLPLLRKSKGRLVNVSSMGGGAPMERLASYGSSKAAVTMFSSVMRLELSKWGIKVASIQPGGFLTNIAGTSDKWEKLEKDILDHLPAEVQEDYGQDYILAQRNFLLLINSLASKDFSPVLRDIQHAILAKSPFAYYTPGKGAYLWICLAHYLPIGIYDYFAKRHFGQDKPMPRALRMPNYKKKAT
Procedure: Inhibition of the 17β-Hydroxysteroid Dehydrogenase Type 2 Enzyme
Recombinant human 173-HSD2 protein (GenBank Accession No. NM_002153.3) produced in Sf-9 insect cells with baculovirus was used for screening.
Recombinant protein (105 nM/4.5 μg/ml) was incubated in 20 mM KH2PO4 pH 8.5, 1 mM EDTA, complete protease inhibitor cocktail, 1 mM NAD with 56.25 nM testosterone (including ^3H-labelled testosterone) for 30 min at RT, in the presence of the potential inhibitor at 10 μM concentration. Inhibitor stock solutions were prepared in DMSO. Final concentration of DMSO was adjusted to 1% in all samples. The enzyme reaction was stopped by addition of 10% trichloroacetic acid (final concentration 1%). Samples were filtrated through […] filtration plate. Analyses of samples was done with Waters Acquity UPLC H-class equipped with XBridge C18 column and XBridge VanGuard C18 guard column. Acetonitrile: 0.1% formic acid in water (42/58 v/v) with flow of 1.2 ml/min was used for mobile phase. The eluent was mixed with scintillant and the radioactivity was monitored in the eluate by a Scintillation Analyser. The conversion percentage of tritiated substrate (testosterone) to product tritiated (androstenedione) for each sample was determined by the relative percentages of substrate and product in the chromatogram. The inhibition percentages of samples were calculated using following formula: […]

[2] = biological target: T2, Recombinant human aldo-keto reductase family 1 member C2 (AKR1C2) protein (Homo sapiens, UniProt P52895); experiment: Inhibition of the aldo-keto reductase family 1 member C2, 3H-dihydrotestosterone conversion; conditions: inhibitor at 10 μM
T2 construct: made in house; host or cells: Sf-9 insect cells (baculovirus)
T2 sequence (P52895 1-323): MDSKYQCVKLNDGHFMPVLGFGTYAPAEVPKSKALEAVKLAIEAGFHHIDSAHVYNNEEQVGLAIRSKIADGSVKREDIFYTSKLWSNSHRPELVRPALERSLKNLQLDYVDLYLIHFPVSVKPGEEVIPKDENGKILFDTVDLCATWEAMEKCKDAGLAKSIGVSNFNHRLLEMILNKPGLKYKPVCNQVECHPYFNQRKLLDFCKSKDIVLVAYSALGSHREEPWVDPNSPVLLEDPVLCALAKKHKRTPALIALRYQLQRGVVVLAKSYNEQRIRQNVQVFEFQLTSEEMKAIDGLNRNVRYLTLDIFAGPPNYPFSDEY
Procedure: Inhibition of the Aldo-Keto Reductase Family 1 Member C2
Recombinant human aldo-keto reductase family 1 member C2 (AKR1C2) protein (GenBank Accession No. NM_001354.6) produced in Sf-9 insect cells with baculovirus was used for screening. Recombinant protein (13.6 nM/0.5 μg/ml) was incubated in 20 mM KH2PO4 pH 7.4, 1 mM EDTA, complete protease inhibitor tablet, 1 mM NADPH with 6.25 nM ^3H-labelled dihydrotestosterone for 45 min at +37° C., in the presence of the potential inhibitor at 10 μM concentration. Inhibitor stock solutions were prepared in DMSO. Final concentration of DMSO was adjusted to 1% in all samples. The enzyme reaction was stopped by addition of 10% trichloroacetic acid (final concentration 1%). Samples were filtrated through […] filtration plate (Merck). Analyses of samples was done with Waters Acquity UPLC H-class equipped with XBridge C18 column and XBridge VanGuard C18 guard column. Acetonitrile: 0.1% formic acid in water (42/58 v/v) with flow of 1.2 ml/min was used for mobile phase. The eluent was mixed with scintillant and the radioactivity was monitored in the eluate by a Scintillation Analyser. The conversion percentage of triated substrate (dihydrotestosterone) to tritiated product (5α-androstane-3α,17β-diol) for each sample was determined by the relative percentages of substrate and product in the chromatogram. The inhibition percentages of samples were calculated using following formula: […]

[3] = biological target: T3, Recombinant human AKR1C3 (17β-HSD5) protein (Homo sapiens, UniProt P42330); experiment: Inhibition of AKR1C3 (17β-hydroxysteroid dehydrogenase type 5) enzyme, fluorescence assay; conditions: inhibitor at 500 nM
T3 construct: made in house; host or cells: E. coli
T3 sequence (P42330 1-323): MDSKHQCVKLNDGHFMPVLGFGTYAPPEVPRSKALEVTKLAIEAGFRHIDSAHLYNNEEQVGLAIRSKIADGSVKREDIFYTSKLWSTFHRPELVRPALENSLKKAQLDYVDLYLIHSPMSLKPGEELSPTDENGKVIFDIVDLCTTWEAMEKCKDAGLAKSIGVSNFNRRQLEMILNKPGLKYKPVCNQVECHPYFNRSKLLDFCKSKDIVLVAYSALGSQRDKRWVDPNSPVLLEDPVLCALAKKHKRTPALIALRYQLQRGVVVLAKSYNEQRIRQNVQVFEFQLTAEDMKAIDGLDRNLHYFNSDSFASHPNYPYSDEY
Procedure: Inhibition of AKR1C3 (17β-Hydroxysteroid Dehydrogenase Type 5) Enzyme
Recombinant human AKR1C3 (17β-HSD5) protein (GenBank Accession No. NM_003739.6) produced in E. coli was used for screening. Recombinant protein (27 nM/1 μg/ml) was incubated in 20 mM KH2PO4, 1 mM EDTA, complete protease inhibitor cocktail, pH 7.4 with 1 μM 9-acetyl-2,3,6,7-tetrahydro-1H,5H,11H-pyrano[2,3-f]pyrido[3,2,1-ij]quinolin-11-one and 1 mM NADPH for 60 to 120 min at RT, in the presence of the potential inhibitor at 500 nM concentration. Inhibitor stock solutions were prepared in DMSO. Final concentration of DMSO was adjusted to 1% in all samples. The samples were analysed by fluorescent measurement with Tecan Spark microplate reader at wavelengths 420 nm for excitation and 510 nm for emission. Samples were evaluated against standards of 9-(1-hydroxyethyl)-2,3,6,7-tetrahydro-1H,5H,11H-pyrano[2,3-f]pyrido[3,2,1-ij]quinolin-11-one at concentrations 1 μM-10 nM. Background fluorescence was reduced from all the samples and standards. The concentrations of formed product were calculated from the standard curve with Tecan Spark Magellan software. The formed product concentrations were used to calculate conversion percentages. The inhibition percentages for the samples were calculated from the conversion percentages.
Inhibition percentages of samples were calculated using following formula: […]

Compound | inhibition at 10 µM [1] [%] | inhibition at 10 µM [2] [%] | inhibition at 0.5 µM [3] [%]
N#CC(=C1CCN(C(=O)N2CCC(O)CC2)CC1)c1ccc(Cl)cc1 [Compound 18, 2-(4-chlorophenyl)-2-(1-(4-hydroxypiperidine-1-carbonyl)piperidin-4-ylidene)acetonitrile] | 11 | 7 | 99
N#CC(=C1CCN(C(=O)N2CCC(CO)CC2)CC1)c1ccc(F)cc1 [Compound 19, 2-(4-fluorophenyl)-2-(1-(4-(hydroxymethyl)piperidine-1-carbonyl)piperidin-4-ylidene)acetonitrile] | 19 | 12 | 99
CCOC1CCN(C(=O)N2CCC(=C(C#N)c3ccc(F)cc3)CC2)CC1 [Compound 20, 2-(1-(4-ethoxypiperidine-1-carbonyl)piperidin-4-ylidene)-2-(4-fluorophenyl)acetonitrile] | 9 | 2 | 97
CC(O)C1CCN(C(=O)N2CCC(=C(C#N)c3ccc(F)cc3)CC2)CC1 (stereo not drawn) [Compound 21, 2-(4-fluorophenyl)-2-(1-(4-(1-hydroxyethyl)piperidine-1-carbonyl)piperidin-4-ylidene)acetonitrile] | 20 | 9 | 95
COC1CN(C(=O)N2CCC(=C(C#N)c3ccc(F)cc3)CC2)C1 [Compound 22, 2-(4-fluorophenyl)-2-(1-(3-methoxyazetidine-1-carbonyl)piperidin-4-ylidene)acetonitrile] | 7 | 9 | 88
N#CC(=C1CCN(C(=O)N2CC(C#N)C2)CC1)c1ccc(F)cc1 [Compound 23, 1-(4-(cyano(4-fluorophenyl)methylene)piperidine-1-carbonyl)azetidine-3-carbonitrile] | 1 | 13 | 96
N#CC(=C1CCN(C(=O)N2C3CCC2COC3)CC1)c1ccc(F)c(F)c1 [Compound 31, 2-(1-(3-oxa-8-azabicyclo[3.2.1]octane-8-carbonyl)piperidin-4-ylidene)-2-(3,4-difluorophenyl)acetonitrile] | 9 | 11 | 95

The remaining lines, values ahead:

inhibition at 10 µM [1] [%] | inhibition at 10 µM [2] [%] | inhibition at 0.5 µM [3] [%] | Compound
11 | 8 | 96 | N#CC(=C1CCN(C(=O)N2CCc3[nH]cnc3C2)CC1)c1ccc(F)cc1 [Compound 24, 2-(4-fluorophenyl)-2-(1-(4,5,6,7-tetrahydro-1H-imidazo[4,5-c]pyridine-5-carbonyl)piperidin-4-ylidene)acetonitrile]
27 | 28 | 98 | N#CC(=C1CCN(C(=O)N2CCc3[nH]ncc3C2)CC1)c1ccc(F)cc1 [Compound 25, 2-(4-fluorophenyl)-2-(1-(4,5,6,7-tetrahydro-1H-pyrazolo[4,3-c]pyridine-5-carbonyl)piperidin-4-ylidene)acetonitrile]
13 | 6 | 97 | N#CC(=C1CCN(C(=O)N2CCn3ncnc3C2)CC1)c1ccc(F)cc1 [Compound 26, 2-(4-fluorophenyl)-2-(1-(5,6,7,8-tetrahydro-[1,2,4]triazolo[1,5-a]pyrazine-7-carbonyl)piperidin-4-ylidene)acetonitrile]
7 | 16 | 98 | N#CC(=C1CCN(C(=O)N2CCn3cncc3C2)CC1)c1ccc(F)cc1 [Compound 27, 2-(4-fluorophenyl)-2-(1-(5,6,7,8-tetrahydroimidazo[1,5-a]pyrazine-7-carbonyl)piperidin-4-ylidene)acetonitrile]
27 | 8 | 97 | N#CC(=C1CCN(C(=O)N2CCn3cccc3C2)CC1)c1ccc(F)cc1 [Compound 28, 2-(4-fluorophenyl)-2-(1-(1,2,3,4-tetrahydropyrrolo[1,2-a]pyrazine-2-carbonyl)piperidin-4-ylidene)acetonitrile]
30 | 5 | 96 | N#CC(=C1CCN(C(=O)N2C[C@@H]3CC[C@@H]2C3)CC1)c1ccc(F)cc1 [Compound 29, 2-(1-((1R,4R)-2-azabicyclo[2.2.1]heptane-2-carbonyl)piperidin-4-ylidene)-2-(4-fluorophenyl)acetonitrile]
14 | 15 | 95 | N#CC(=C1CCN(C(=O)N2CCc3cccnc32)CC1)c1ccc(F)cc1 [Compound 30, 2-(1-(2,3-dihydro-1H-pyrrolo[2,3-b]pyridine-1-carbonyl)piperidin-4-ylidene)-2-(4-fluorophenyl)acetonitrile]
4 | 17 | 97 | N#CC(=C1CCN(C(=O)N2CCc3nocc3C2)CC1)c1ccc(F)c(F)c1 [Compound 32, 2-(3,4-difluorophenyl)-2-(1-(4,5,6,7-tetrahydroisoxazolo[4,3-c]pyridine-5-carbonyl)piperidin-4-ylidene)acetonitrile]
7 | 16 | 97 | N#CC(=C1CCN(C(=O)N2CCC(CO)CC2)CC1)c1ccc(F)c(F)c1 [Compound 33, 2-(3,4-difluorophenyl)-2-(1-(4-(hydroxymethyl)piperidine-1-carbonyl)piperidin-4-ylidene)acetonitrile]
